“Also recorded” adds a separate entry of the source. Like-named read-outs stand apart in the source and are kept apart here.
Legend:
[1] = system: NO production in RAW cells; experiment: Inhibition of NO production in RAW cells stimulated with interferon-γ; assay type: cell-based, mouse; conditions: for IC50: read-out: IC50 (nM), NO production in RAW cells
[2] = system: MCF-7 mouse breast cancer cell lines; conditions: Honda et al., 2003; cited from earlier work
[3] = system: NO production in primary mouse macrophages; conditions: cited from earlier work; for IC50: Table 1, stimulated with interferon-γ, compounds racemic
[4] = system: HO-1; experiment: Induction of HO-1 in RAW cells (Western blot); assay type: cell-based, mouse; conditions: FIG. 9; 30-300 nM, 24 hours
[5] = system: heme oxygenase-1; experiment: Induction of heme oxygenase-1 in liver of CD-1 mice after gavage; assay type: in vivo; conditions: FIG. 3; CD-1 mice, gavage in DMSO, livers after 6 h
Method: FIG. 3. […] CD-1 mice (2 per group) were gavaged with TBEs or CDDO-Im in DMSO. After 6 h, livers were harvested and homogenized. Lysates were separated by SDS-PAGE, probed with HO-1 antibodies, and developed by ECL.
FIG. 11. […] Male CD-1 mice (3 per group) were gavaged with 1 μmol TBEs, CDDO or CDDO-Im in DMSO. Six hours later, livers were harvested and homogenized. Lysates were separated by SDS-PAGE, probed with HO-1 antibodies, and developed by ECL.
CD-1 mice (2 per group) were gavaged with TBEs or CDDO-Im in DMSO. After 6 h, livers were harvested and homogenized. Lysates were separated by SDS-PAGE, probed with HO-1 antibodies, and developed by ECL.

[6] = system: iNOS; experiment: Inhibition of iNOS induction in RAW cells stimulated with IFN-γ (Western blot); assay type: cell-based, mouse; conditions: FIG. 10; 30-300 nM, IFNγ 10 ng/ml, 24 hours
[7] = system: NO production in RAW cells; conditions: Honda et al., 2000, 2002; cited from earlier work
[8] = Mus musculus, Table 6, optically active TBE-31 and 34, stimulated with interferon-7
[9] = Mus musculus, Table 5, C-8a functionalized TBE-9 analogs, stimulated with interferon-γ

## CC1(C)C(=O)C(C#N)=CC2(C)C3=CC(=O)C(C#N)=CC3(C#C[Si](C)(C)C)CCC12 (single isomer, unassigned; (-)) [(−)-TBE-34]
[1]; Table 6, optically active TBE-31 and 34, stimulated with interferon-7
  IC50: 3 nM

## C#C[C@@]12C=C(C#N)C(=O)C=C1[C@@]1(C)C=C(C#N)C(=O)C(C)(C)[C@H]1CC2 [(+)-TBE-31, (+)-(4bS,8aS,10aR)-10a-ethynyl-4b,8,8-trimethyl-3,7-dioxo-3,4b,7,8,8a,9,10,10a-octahydrophenanthrene-2,6-dicarbonitrile]
[1]; [8]
  IC50: 1 nM

## CC1(C)C(=O)C(C#N)=C[C@]2(C)C3=CC(=O)C(C#N)=C[C@]3(C)CC[C@@H]12 [(−)-TBE-9]
[2]
  Activity against MCF-7 mouse breast cancer cell lines: active

## C#C[C@]12C=C(C#N)C(=O)C=C1[C@@]1(C)C=C(C#N)C(=O)C(C)(C)[C@@H]1CC2 [(−)-TBE-31]
[1]; [8]
  IC50: 3 nM

## CC1(C)CC[C@]2(C(=O)O)CC[C@]3(C)[C@H](C(=O)C=C4[C@@]5(C)C=C(C#N)C(=O)C(C)(C)[C@@H]5CC[C@]43C)[C@@H]2C1 [CDDO, 2-cyano-3,12-dioxooleana-1,9(11)-dien-28-oic acid, reference compound]
[3]
  IC50: 0.5 nM
[1]; Table 4, C-8a functionalized TBE-10 analogs, stimulated with interferon-γ
  IC50: 6 nM
[1]; Table 5, C-8a functionalized TBE-9 analogs, stimulated with interferon-γ
  IC50: 20 nM

## CC1(C)CC[C@]2(C(=O)n3ccnc3)CC[C@]3(C)[C@H](C(=O)C=C4[C@@]5(C)C=C(C#N)C(=O)C(C)(C)[C@@H]5CC[C@]43C)[C@@H]2C1 [CDDO-Im, 1-[2-cyano-3-,12-dioxooleana-1,9(11)-dien-28-oyl]imidazole, reference compound]
[4]
  Induction of HO-1 in RAW cells: most potent compound amongst semi-synthetic triterpenoid analogues in this assay
[5]
  Induction of heme oxygenase-1 in liver in vivo: very potent triterpenoid agent for induction of heme oxygenase-1

## CC1(C)CC[C@]2(C(=O)O)CC[C@]3(C)C(=CC[C@@H]4[C@@]5(C)CC[C@H](O)C(C)(C)[C@@H]5CC[C@]43C)[C@@H]2C1 [Oleanolic acid, reference compound]
[3]
  IC50: > 40000 nM

## CC(=O)O[C@@H]1CCC=C2[C@@]3(C)C=C(C#N)C(=O)C(C)(C)[C@@H]3CC[C@]21C [TBE-2]
[3]
  IC50: 480 nM

## CC(=O)O[C@@H]1CC(=O)C=C2[C@@]3(C)C=C(C#N)C(=O)C(C)(C)[C@@H]3CC[C@]21C [TBE-3]
[3]
  IC50: 53 nM

## CC1(C)C(=O)C(C#N)=C[C@]2(C)C3=CC(=O)C[C@@H](O)[C@]3(C)CC[C@@H]12 [TBE-4]
[3]
  IC50: 75 nM

## CC1(C)C(=O)C(C#N)=C[C@]2(C)C3=CC(=O)C=C[C@]3(C)CC[C@@H]12 [TBE-5]
[3]
  IC50: 61 nM

## CC1(C)C(=O)C(C#N)=CC2(C)C3=CC(=O)C(C#N)=CC3(C#C[Si](C)(C)C)CCC12 (stereo not shown) [TBE-34]
[4]
  Induction of HO-1 in RAW cells: nearly equivalent in potency to TBE-31
[6]
  Inhibition of induction of iNOS in RAW cells stimulated with IFNγ: nearly equivalent in potency to TBE-31; also recorded: nearly equivalent in potency to both compounds
[1]
  Potency for inhibition of NO production in RAW cells (in words): nearly equivalent potency to that of TBE-31
[1]; Mus musculus
  IC50: 3 nM

## CC#CC12C=C(C#N)C(=O)C=C1C1(C)C=C(C#N)C(=O)C(C)(C)C1CC2 (stereo not shown) [TBE-35]
[1]; [9]
  IC50: 5 nM

## CCC#CC12C=C(C#N)C(=O)C=C1C1(C)C=C(C#N)C(=O)C(C)(C)C1CC2 (stereo not shown) [TBE-36]
[1]; [9]
  IC50: 20 nM

## CC1(C)C(=O)C(C#N)=CC2(C)C3=CC(=O)C(C#N)=CC3(C#CC#N)CCC12 (stereo not shown) [TBE-38]
[1]; [9]
  IC50: 4 nM

## C#CC#CC12C=C(C#N)C(=O)C=C1C1(C)C=C(C#N)C(=O)C(C)(C)C1CC2 (stereo not shown) [TBE-39]
[1]; [9]
  IC50: 3 nM
[1]; RAW cells, interferon-γ
  Potency for inhibition of NO production in RAW cells (in words): nearly equivalent potency to that of TBE-31

## COC(=O)[C@]12CCC(C)(C)C[C@H]1C1C(=O)C=C3[C@@]4(C)C=C(C(=O)O)C(=O)C(C)(C)[C@@H]4CC[C@@]3(C)[C@]1(C)CC2 (stereo partly shown) [TP-190, reference compound]
[3]; Honda et al., 2000, 2002
  Inhibition of NO production in mouse macrophages (in words): potent inhibitors of NO production
[7]
  Inhibition of NO production in RAW cells (in words): potent inhibitors of NO production

## CC1(C)CC[C@]2(C#N)CC[C@]3(C)[C@H](C(=O)C=C4[C@@]5(C)C=C(C#N)C(=O)C(C)(C)[C@@H]5CC[C@]43C)[C@@H]2C1 [TP-225, reference compound]
[1]; [9]
  IC50: 1 nM

## C[C@]12CCC(=O)C=C1CC[C@@H]1[C@@H]2[C@@H](O)C[C@@]2(C)[C@H]1CC[C@]2(O)C(=O)CO [hydrocortisone, reference compound]
[3]
  IC50: 10 nM
[1]; Mus musculus, Table 4, C-8a functionalized TBE-10 analogs, stimulated with interferon-γ
  IC50: 61 nM
